According to patent US12297482B2, “Rapid cell culture test device designed such that fluid films with uniform thickness are formed” (priority 2020, dated 2025):

Tests used:
[1] = tested on: Enterobacter cloacae; test: Susceptibility testing of blood-sample strain using the cell culture test device (DRAST); assay type: cell-based; set-up: key: susceptible (S); intermediate resistance (I); resistance (R); details: strain from blood sample
Excerpt: (§1) The liquid medium usually […].

[2] = tested on: Enterobacter cloacae; test: Susceptibility testing of blood-sample strain by broth microdilution (BMD); assay type: cell-based; set-up: key: susceptible (S); intermediate resistance (I); resistance (R); details: BMD testing method, strain from blood sample
Method: The tests were conducted on various drugs that are currently used in testing organizations. […] Accordingly, these test results are all classified as minor errors of the first step judgement.

[3] = tested on: P. aeruginosa ATCC 27853; test: Antibiotic susceptibility testing using the cell culture test device (DRAST), time-lapse colony observation; details: reference strain, observed until 6 h
[4] = tested on: E. faecalis ATCC 29212; test: as above; details: reference strain, observed until 6 h
[5] = tested on: S. aureus ATCC 29213; test: as above; details: reference strain, observed until 6 h
[6] = tested on: Enterococcus faecium; test: Susceptibility testing of blood-sample strain using the cell culture test device (DRAST); assay type: cell-based; set-up: key: susceptible (S); intermediate resistance (I); resistance (R); details: strain from blood sample
Excerpt: as §1
For example, the biological agent may be a culture of blood collected from a human infected with bacteria, i.e. a culture of blood positive for bacterial infection. In this case, a liquid medium stimulating the division of only the bacterial cells can be used to distinguish the bacterial cells from the blood cells based on their different sizes. The biological agent positive for bacterial infection may be collected and diluted with the gelling agent-containing liquid medium. Thus, there is no need to separate the bacteria from the blood sample, shortening the test time.

[7] = tested on: Enterococcus faecium; test: Susceptibility testing of blood-sample strain by broth microdilution (BMD); assay type: cell-based; set-up: key: susceptible (S); intermediate resistance (I); resistance (R); details: BMD testing method, strain from blood sample
Method: The tests were conducted on various drugs that are currently used in testing organizations. […] Staphylococcus aureus, Staphylococcus epidermidis, Enterococcus faecalis, and Enterococcus faecium were detected in four blood samples. The test results on S. aureus and S. epidermidis in the BMD testing method were in good agreement with those in the testing method using the cell culture test device (DRAST) of the present disclosure.
Accordingly, these test results are all classified as minor errors of the first step judgement. […] The concentrations shown in FIG. 16 are expressed in μg/mL.

C[C@@H](O)[C@H]1C(=O)N2C(C(=O)O)=C(S[C@@H]3CN[C@H](C(=O)Nc4cccc(C(=O)O)c4)C3)[C@H](C)[C@H]12 [ertapenem]
susceptibility category (S/I/R) of E. cloacae [1]: I
susceptibility category (S/I/R) of E. cloacae [2]: R

C[C@H]1[C@H](NC(=O)/C(=N\OC(C)(C)C(=O)O)c2csc(N)n2)C(=O)N1S(=O)(=O)O [aztreonam]
MIC of the antibiotic against P. aeruginosa ATCC 27853 [3]: 8.0 µg/mL

gentamicin
MIC of the antibiotic against E. faecalis ATCC 29212 [4]: 8.0 µg/mL

penicillin
MIC of the antibiotic against S. aureus ATCC 29213 [5]: 1.0 µg/mL

CC(=O)NC[C@H]1CN(c2ccc(N3CCOCC3)c(F)c2)C(=O)O1 [linezolid]
susceptibility category (S/I/R) of E. faecium [6]: I
susceptibility category (S/I/R) of E. faecium [7]: R
